Laboratory results published in patent US20230263782A1, “ORAL FORMULATIONS AND USES THEREOF” (INVENTISBIO CO., LTD., priority 2020, published 2023).
In brackets after ≈: the same amount, converted by molar mass. Where a name gives a salt, the structure may show the parent alone. Read-outs that look alike come from different tables or passages of the source.

Experiments:
[1] = Solubility test in pH 1.2 or pH 6.8 buffer (saturated solutions, HPLC; remaining solids by XRPD); assay type: physicochemical; conditions: for Stability in buffer solution (HPLC): pH 1.2 buffer solution; for solubility at 30 min / Solubility at 24 h: room temperature; for XRPD patterns at 24 h: remaining solid
Experimental: For solubility test: About 20 mg of Compound FA, L-lysine salt and meglumine salt (Form I) were weighed into vials, added 3 mL of pH1.2 or pH 6.8 buffer to make saturated solutions. All suspensions were kept shaking with 200 rpm at room temperature for up to 24 hours. […] At 24 hours, remaining solids were collected and determined by XRPD.

[2] = Solid stability test at 40° C./75% RH for 8 days (HPLC, XRPD); assay type: physicochemical; conditions: for Solid stability: 40° C./75% RH for 8 days, HPLC and XRPD; for Purity at 8 days / Purity at 0 day: HPLC; for Purity at 8 days: after 40° C./75% RH for 8 days; for Purity at 0 day: start of 40° C./75% RH storage
Experimental: HPLC ANALYSIS: a representative HPLC method is shown below, which can be used, for example, to analyze the purity, solubility, and stability of the salts herein.
For stability test: About 20 mg of Compound FA, L-lysine salt and meglumine salt (Form I) were weighed into vials, and put at the condition of 40° C./75% RH for 8 days. At 0 and 8 days, the solid sample was dissolved using acetonitrile/water (1/1) to make a solution with the concentration of 0.2 mg/mL. Sample solutions were analyzed by HPLC and solid samples were examined by XRPD.

ER+ breast cancer cells = conditions: as discussed in WO2017/136688; cited from earlier work
[3] = compared with fulvestrant, GDC-0810 and AZD9496; WO2017/136688; cited from earlier work
[4] = Dynamic moisture sorption analysis (DVS), XRPD before and after; assay type: physicochemical; conditions: FIG. 5A
Experimental: Dynamic moisture sorption analysis (DVS): DVS was determined using IGAsorp (Hiden Isochema, UK). The sample was tested at a targeted RH (relative humidity) of 10 to 90% full cycle in step mode. The analysis was performed in 10% RH increments.

[5] = Solubility in water (statement); assay type: physicochemical
[6] = Meglumine salt form interconversion study (slurry in IPA or water, XRPD); assay type: physicochemical; conditions: Water
Experimental: Interconversion study: Interconversion studies were carried out by mixing the same amount of different form solids in IPA or water, respectively. Suspensions were kept stirring at room temperature and 60° C. for several days, during which suspensions were filtrated and analyzed by XRPD.

[7] = Physical treatment (grinding) of Form I; assay type: physicochemical; conditions: grinded for 2 min and 5 min
Experimental: Physical treatment of Form I: Form I of meglumine salt was grinded for 2 min and 5 min. After grinding, the crystallinity declined, but the crystal form was still Form I.

[8] = Solid stability test of Form I at 25° C./92.5% RH for 10 days (XRPD); assay type: physicochemical
Experimental: Solid stability test of Form I at 92.5% RH for 10 days: About 20 mg of meglumine salt Form I was put into the condition of 25° C./92.5% RH for 10 days. At 10 days, the sample was analyzed by XRPD.

ER = target: T1, ER (Homo sapiens, UniProt P03372); conditions: clinical samples, intramuscular injection monthly; cited from earlier work
T1 sequence (P03372 1-595): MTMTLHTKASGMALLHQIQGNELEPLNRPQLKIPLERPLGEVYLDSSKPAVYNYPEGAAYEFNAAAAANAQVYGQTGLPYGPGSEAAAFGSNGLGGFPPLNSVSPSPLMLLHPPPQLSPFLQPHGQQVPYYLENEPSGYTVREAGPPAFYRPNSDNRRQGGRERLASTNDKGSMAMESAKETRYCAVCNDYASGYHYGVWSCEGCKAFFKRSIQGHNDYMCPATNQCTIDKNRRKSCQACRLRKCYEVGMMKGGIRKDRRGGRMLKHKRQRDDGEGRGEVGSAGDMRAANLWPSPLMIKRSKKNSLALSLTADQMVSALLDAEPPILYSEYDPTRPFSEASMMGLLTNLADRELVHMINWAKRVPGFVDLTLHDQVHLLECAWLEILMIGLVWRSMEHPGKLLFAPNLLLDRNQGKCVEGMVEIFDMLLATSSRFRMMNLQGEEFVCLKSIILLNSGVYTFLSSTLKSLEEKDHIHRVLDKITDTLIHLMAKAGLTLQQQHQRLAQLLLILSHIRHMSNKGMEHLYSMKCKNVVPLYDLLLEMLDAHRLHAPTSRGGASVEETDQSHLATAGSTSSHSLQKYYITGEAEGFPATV

[9] = pH 1.2 buffer, calculated with the sum of impurities and major peak area

SMILES | Stability in buffer solution (HPLC) [1] | Solubility at 24 h [1, 9] | Solubility at 24 h ([1]; pH 6.8 buffer) | XRPD patterns at 24 h ([1]; pH 1.2 buffer) | XRPD patterns at 24 h ([1]; pH 6.8 buffer) | Solid stability [2] | Purity at 8 days [2] | Purity at 0 day [2] | other results
C[C@@H]1Cc2c([nH]c3ccccc23)[C@@H](c2c(Cl)cc(/C=C/C(=O)O)cc2Cl)N1CC(C)(C)F [Compound FA, (E)-3-(3,5-dichloro-4-((1R,3R)-2-(2-fluoro-2-methylpropyl)-3-methyl-2,3,4,9-tetrahydro-1H-pyrido[3,4-b]indol-1-yl)phenyl)acrylic acid] | unstable | 267 µg/mL (≈ 562 µM) | 3 µg/mL (≈ 6.31 µM) | Low crystallinity | Low crystallinity | physically and chemically stable | 96.31 Area % | 98.02 Area % | solubility at 30 min ([1]; pH 1.2 buffer, pH 1.2, simulated gastric fluid, thermodynamic from solid, pH 1.2 buffer, calculated with the sum of impurities and major peak area, read-out: Solubility at 30 min): 571 µg/mL (≈ 1200 µM); solubility at 30 min ([1]; pH 6.8 buffer): 14 µg/mL (≈ 29.4 µM); growth of ER+ breast cancer cells (ER+ breast cancer cells): inhibited the growth of ER+ breast cancer cells; human hepatocyte clearance [3]: better human hepatocyte clearance; Solid form before and after DVS studies (XRPD) [4]: did not change; Solubility in water [5]: practically insoluble in water
C[C@@H]1Cc2c([nH]c3ccccc23)[C@@H](c2c(Cl)cc(/C=C/C(=O)O)cc2Cl)N1CC(C)(C)F [Meglumine salt, meglumine (E)-3-(3,5-dichloro-4-((1R,3R)-2-(2-fluoro-2-methylpropyl)-3-methyl-2,3,4,9-tetrahydro-1H-pyrido[3,4-b]indol-1-yl)phenyl acrylate] | unstable | 1612 µg/mL | 17 µg/mL | No change | Low crystallinity | physically and chemically stable | 99.66 Area % | 99.68 Area % | solubility at 30 min [1, 9]: 296 µg/mL; solubility at 30 min ([1]; pH 6.8 buffer, pH 6.8, aqueous buffer, thermodynamic from solid, pH 6.8 buffer, read-out: Solubility at 30 min): 20 µg/mL; Final crystal form ([6]; 25° C.): Dihydrate; Final crystal form ([6]; 60° C.): Form I; Crystal form after grinding [7]: still Form I; Crystal form after storage (XRPD) [8]: remained unchanged
C[C@]12CC[C@@H]3c4ccc(O)cc4C[C@@H](CCCCCCCCC[S+]([O-])CCCC(F)(F)C(F)(F)F)[C@H]3[C@@H]1CC[C@@H]2O (some centres unmarked) [fulvestrant] | – | – | – | – | – | – | – | – | ER degradation (ER): ~50%
